According to patent US12390481B2, “Sialic acid compositions for the use of inhibiting and treating coronavirus infection” (LifeScience AS, priority 2020, dated 2025):

Experiments:
CoV-OC43 = experiment: in vitro inhibition of infection of cells with test virus CoV-OC43; type: cell-based; details: for infection of cells by CoV-OC43 at different concentrations: different dilutions of the sialic acid, two replicates, FIGS. 1 and 2
Protocol: FIG. 1 provides data from one replicate showing infection of cells by CoV-OC43 at different concentrations of either Neu5Ac or Neu5Gc.
FIG. 2 provides data from another replicate showing infection of cells by CoV-OC43 at different concentrations of either Neu5Ac or Neu5Gc.
FIG. 3 provides data from an experiment where inhibition of infection by Neu5Ac is compared to a control sugar, galactose.
The effectiveness of sialic acid (Neu5Ac or Neu5Gc) in preventing corona virus infection was evaluated in vitro in a model system. Different dilutions of the sialic acids were tested for their ability to inhibit infection of cells with the test virus CoV-OC43. FIGS. 1 and 2 provide data from two replicates showing infection of cells by CoV-OC43 at different concentrations of either Neu5Ac or Neu5Gc (Neu5Ac left hand bars, Neu5Gc right hand bars).

[1] = according to Schalcter (2017), cited from earlier work

SMILES	inhibition of infection compared to a control sugar, galactose (CoV-OC43; CoV-OC43, FIG. 3)	infection of cells by CoV-OC43 at different concentrations (CoV-OC43)	excretion via urine [1]	absorption after ingestion ([1]; after ingestion)
CC(=O)N[C@H]1[C@H]([C@H](O)[C@H](O)CO)OC(O)(C(=O)O)C[C@@H]1O (some centres unmarked) [Neu5Ac, N-acetyl neuraminic acid]	prevents infection as compared to the control	inhibited in a dose-dependent manner	quickly excreted via urine	rapidly absorbed
O=C(CO)N[C@H]1[C@H]([C@H](O)[C@H](O)CO)OC(O)(C(=O)O)C[C@@H]1O (some centres unmarked) [Neu5Gc, N-glycolylneuraminic acid]	–	inhibited in a dose-dependent manner	–	–
